Test results as given in patent US20230078764A1 (Yumanity Therapeutics, Inc., priority 2019, published 2023).
Where two headings read alike, the source gives them in different places.

Tests used:
human SCD5 = target: T1, human SCD5 (Homo sapiens, UniProt Q86SK9); assay: Growth inhibition of yeast strain expressing human SCD5 as sole desaturase (OLE1 deleted), OD600 readout; type: cell-based
T1 construct: expressed in transfected cells; host or cells: yeast strain with OLE1 deleted, plasmid-borne human SCD5 (selected in SD-Ura)
T1 sequence (Q86SK9 1-330): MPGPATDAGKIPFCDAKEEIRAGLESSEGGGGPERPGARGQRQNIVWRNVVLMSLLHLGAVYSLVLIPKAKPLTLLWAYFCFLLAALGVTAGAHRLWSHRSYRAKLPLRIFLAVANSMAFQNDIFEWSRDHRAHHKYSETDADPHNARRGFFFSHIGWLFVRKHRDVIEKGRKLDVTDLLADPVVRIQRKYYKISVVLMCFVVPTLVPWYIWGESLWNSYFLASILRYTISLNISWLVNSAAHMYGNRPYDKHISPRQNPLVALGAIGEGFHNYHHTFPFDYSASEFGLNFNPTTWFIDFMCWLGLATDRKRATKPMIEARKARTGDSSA

human SCD1 = target: T2, human SCD1 (Homo sapiens, UniProt O00767); assay: Growth inhibition of yeast strain expressing human SCD1 as sole desaturase (OLE1 deleted), OD600 readout; type: cell-based
T2 construct: expressed in transfected cells; host or cells: yeast strain with OLE1 deleted, plasmid-borne human SCD1 (selected in SD-Ura)
T2 sequence (O00767 1-359): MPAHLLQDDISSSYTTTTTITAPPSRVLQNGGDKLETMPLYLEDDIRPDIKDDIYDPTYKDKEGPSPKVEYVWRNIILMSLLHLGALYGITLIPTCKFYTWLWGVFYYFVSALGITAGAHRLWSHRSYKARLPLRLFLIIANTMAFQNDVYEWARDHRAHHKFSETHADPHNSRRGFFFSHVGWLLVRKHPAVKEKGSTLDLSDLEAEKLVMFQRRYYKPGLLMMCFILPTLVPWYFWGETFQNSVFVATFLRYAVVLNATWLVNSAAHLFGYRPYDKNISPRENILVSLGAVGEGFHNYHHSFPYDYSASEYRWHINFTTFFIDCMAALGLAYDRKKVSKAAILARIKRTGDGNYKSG

[1] = yeast strain expressing human SCD5 as sole desaturase, growth (OD600) after 40 h at 30° C., read-out: SCD5 IC50
[2] = yeast strain expressing human SCD1 as sole desaturase, growth (OD600) after 40 h at 30° C., read-out: SCD1 IC50

For `CN1N=C(C(=O)Nc2ccc(Cc3cccc(F)c3)cc2)CCC1=O` [Compound 1, N-(4-(3-fluorobenzyl)phenyl)-1-methyl-6-oxo-1,4,5,6-tetrahydropyridazine-3-carboxamide], which IC50 (human SCD5; [1]) is on record?
Its IC50 is 5160 nM.

And the IC50 (human SCD1; [2])?
The IC50 was over 45000 nM.

With `CN1N=C(C(=O)Nc2ccc(Cc3cccc(Cl)c3)cc2)CCC1=O` [Compound 2, N-(4-(3-chlorobenzyl)phenyl)-1-methyl-6-oxo-1,4,5,6-tetrahydropyridazine-3-carboxamide] as the compound, how does the IC50 (human SCD5; [1]) read?
The IC50 was 2650 nM.

What about the IC50 (human SCD1; [2]) of the same compound?
The IC50 was over 45000 nM.

For `Cn1nc(C(=O)Nc2ccc(Cc3cccc(Cl)c3)cc2)ccc1=O` [Compound 3, N-(4-(3-chlorobenzyl)phenyl)-1-methyl-6-oxo-1,6-dihydropyridazine-3-carboxamide], which IC50 (human SCD5; [1]) is on record?
The IC50 was 450 nM.

What about the IC50 (human SCD1; [2]) of the same compound?
The IC50 was 990 nM.

What does the source list for `Cn1nc(C(=O)Nc2ccc(Cc3cccc(F)c3)cc2)ccc1=O` [Compound 4, N-(4-(3-fluorobenzyl)phenyl)-1-methyl-6-oxo-1,6-dihydropyridazine-3-carboxamide]?
IC50 (human SCD5; [1]): 580 nM; IC50 (human SCD1; [2]): 1730 nM

Which results are given for `Cn1cc(C(=O)Nc2ccc(Cc3cccc(F)c3)cc2)ccc1=O` [Compound 5, N-(4-(3-fluorobenzyl)phenyl)-1-methyl-6-oxo-1,6-dihydropyridine-3-carboxamide]?
IC50 (human SCD5; [1]): 1870 nM; IC50 (human SCD1; [2]): 3340 nM

With `CN1N=C(C(=O)Nc2ccc(Cc3cccc(F)c3)cn2)CCC1=O` [Compound 6, N-(5-(3-fluorobenzyl)pyridin-2-yl)-1-methyl-6-oxo-1,4,5,6-tetrahydropyridazine-3-carboxamide] as the compound, how does the IC50 (human SCD5; [1]) read?
Its IC50 is 1020 nM.

And the IC50 (human SCD1; [2])?
The IC50 was over 45000 nM.

For `CN1N=C(C(=O)Nc2ccc(Cc3cccc(C#N)c3)cn2)CCC1=O` [Compound 8, N-(5-(3-cyanobenzyl)pyridin-2-yl)-1-methyl-6-oxo-1,4,5,6-tetrahydropyridazine-3-carboxamide], which IC50 (human SCD1; [2]) is on record?
Its IC50 is over 45000 nM.

With `CN1N=C(C(=O)Nc2ccc(Cc3ccc(F)c(C#N)c3)cn2)CCC1=O` [Compound 10, N-(5-(3-cyano-4-fluorobenzyl)pyridin-2-yl)-1-methyl-6-oxo-1,4,5,6-tetrahydropyridazine-3-carboxamide] as the compound, how does the IC50 (human SCD5; [1]) read?
Its IC50 is 500 nM.

And the IC50 (human SCD1; [2])?
Its IC50 is 9540 nM.

For `CN1N=C(C(=O)Nc2ccc(Cc3ccc(Cl)c(F)c3)cn2)CCC1=O` [Compound 11, N-(5-(4-chloro-3-fluorobenzyl)pyridin-2-yl)-1-methyl-6-oxo-1,4,5,6-tetrahydropyridazine-3-carboxamide], which IC50 (human SCD5; [1]) is on record?
The IC50 was 80 nM.

What about the IC50 (human SCD1; [2]) of the same compound?
Its IC50 is 2740 nM.

How did the IC50 (human SCD1; [2]) turn out when `CN1N=C(C(=O)Nc2ccc(Cc3ccccc3)cn2)CCC1=O` [Compound 13, N-(5-benzylpyridin-2-yl)-1-methyl-6-oxo-1,4,5,6-tetrahydropyridazine-3-carboxamide] was run?
The IC50 was over 45000 nM.

What does the source list for `CN1N=C(C(=O)Nc2ccc(Cc3cc(C(F)(F)F)ccn3)cn2)CCC1=O` [Compound 14, 1-methyl-6-oxo-N-(5-((4-(trifluoromethyl)pyridin-2-yl)methyl)pyridin-2-yl)-1,4,5,6-tetrahydropyridazine-3-carboxamide]?
IC50 (human SCD5; [1]): 3740 nM; IC50 (human SCD1; [2]): 17300 nM

`COc1cc(Cl)cc(Cc2ccc(NC(=O)c3ccc(=O)n(C)c3)nc2)c1` [Compound 50, N-(5-(3-chloro-5-methoxybenzyl)pyridin-2-yl)-1-methyl-6-oxo-1,6-dihydropyridine-3-carboxamide] was tested. Which IC50 (human SCD5; SCD5 IC50) did it give?
The IC50 was 20 nM.

What about the IC50 (human SCD1; SCD1 IC50) of the same compound?
Its IC50 is 1530 nM.

Which results are given for `CN1N=C(C(=O)Nc2ccc(Cc3cc(Cl)cc(C#N)c3)cn2)CCC1=O` [Compound 51, N-(5-(3-chloro-5-cyanobenzyl)pyridin-2-yl)-1-methyl-6-oxo-1,4,5,6-tetrahydropyridazine-3-carboxamide]?
IC50 (human SCD5; [1]): 1560 nM; IC50 (human SCD1; [2]): > 45000 nM

What does the source list for `COc1cc(F)cc(Cc2ccc(NC(=O)c3ccc(=O)n(C)c3)nc2)c1` [Compound 52, N-(5-(3-fluoro-5-methoxybenzyl)pyridin-2-yl)-1-methyl-6-oxo-1,6-dihydropyridine-3-carboxamide]?
IC50 (human SCD5; SCD5 IC50): 130 nM; IC50 (human SCD1; SCD1 IC50): 8210 nM

What does the source list for `Cn1cc(C(=O)Nc2ccc(Cc3ccc(F)cc3)cn2)ccc1=O` [Compound 53, N-(5-(4-fluorobenzyl)pyridin-2-yl)-1-methyl-6-oxo-1,6-dihydropyridine-3-carboxamide]?
IC50 (human SCD5; SCD5 IC50): 10 nM; IC50 (human SCD1; SCD1 IC50): 280 nM

How did the IC50 (human SCD5; SCD5 IC50) turn out when `COc1cc(Cc2ccc(NC(=O)c3ccc(=O)n(C)c3)nc2)ccc1F` [Compound 54, N-(5-(4-fluoro-3-methoxybenzyl)pyridin-2-yl)-1-methyl-6-oxo-1,6-dihydropyridine-3-carboxamide] was run?
The IC50 was 580 nM.

And the IC50 (human SCD1; SCD1 IC50)?
Its IC50 is 12000 nM.

How did the IC50 (human SCD5; SCD5 IC50) turn out when `Cn1cc(C(=O)Nc2ccc(Cc3cccc(F)c3)cn2)ccc1=O` [Compound 55, N-(5-(3-fluorobenzyl)pyridin-2-yl)-1-methyl-6-oxo-1,6-dihydropyridine-3-carboxamide] was run?
Its IC50 is 160 nM.

What about the IC50 (human SCD1; SCD1 IC50) of the same compound?
The IC50 was 1210 nM.

What does the source list for `Cn1cc(C(=O)Nc2ccc(Cc3cc(F)c(F)c(F)c3)cn2)ccc1=O` [Compound 56, 1-methyl-6-oxo-N-(5-(3,4,5-trifluorobenzyl)pyridin-2-yl)-1,6-dihydropyridine-3-carboxamide]?
IC50 (human SCD5; SCD5 IC50): 10 nM; IC50 (human SCD1; SCD1 IC50): 20 nM

`Cn1cc(NC(=O)c2ccc(Cc3cccc(Cl)c3)cn2)ccc1=O` [Compound 57, 5-(3-chlorobenzyl)-N-(1-methyl-6-oxo-1,6-dihydropyridin-3-yl)picolinamide] was tested. Which IC50 (human SCD5; [1]) did it give?
The IC50 was 10 nM.

What about the IC50 (human SCD1; [2]) of the same compound?
The IC50 was 560 nM.

Which IC50 (human SCD1; [2]) does the source give for `N#Cc1ccc(C(=O)Nc2ccc(Cc3cccc(F)c3)cn2)nc1` [Compound 135, 5-cyano-N-(5-(3-fluorobenzyl)pyridin-2-yl)picolinamide] here?
The IC50 was 14100 nM.

Which IC50 (human SCD1; [2]) does the source give for `N#Cc1ccc(C(=O)Nc2ccc(Cc3cccc(F)c3)cn2)nc1` [Compound 142, 5-cyano-N-(5-(3-fluorobenzyl)pyridin-2-yl)picolinamide] here?
Its IC50 is over 45000 nM.

For `Cc1nnc2ccc(C(=O)Nc3ccc(Cc4cccc(F)c4)cn3)cn12` [Compound 152, N-(5-(3-fluorobenzyl)pyridin-2-yl)-3-methyl-[1,2,4]triazolo[4,3-a]pyridine-6-carboxamide], which IC50 (human SCD1; [2]) is on record?
The IC50 was over 45000 nM.

Which IC50 (human SCD1; [2]) does the source give for `Cn1cc(C(=O)Nc2ccc(Oc3cccc(F)c3)cn2)ccc1=O` [Compound 160, N-[5-(3-fluorophenoxy)pyridin-2-yl]-1-methyl-6-oxo-1,6-dihydropyridine-3-carboxamide] here?
The IC50 was over 45000 nM.

For `Cn1nc(C(=O)Nc2ccc(Oc3cccc(F)c3)cn2)ccc1=O` [Compound 162, N-[5-(3-fluorophenoxy)pyridin-2-yl]-1-methyl-6-oxo-1,6-dihydropyridazine-3-carboxamide], which IC50 (human SCD1; [2]) is on record?
Its IC50 is over 45000 nM.

For `CCn1cc(C(=O)Nc2ccc(Oc3cccc(F)c3)cn2)ccc1=O` [Compound 164, 1-ethyl-N-[5-(3-fluorophenoxy)pyridin-2-yl]-6-oxo-1,6-dihydropyridine-3-carboxamide], which IC50 (human SCD1; [2]) is on record?
Its IC50 is over 45000 nM.

For `COc1cccc(Cc2ccc(NC(=O)C3=NN(C)C(=O)CC3)nn2)c1` [Compound 182, N-(6-(3-methoxybenzyl)pyridazin-3-yl)-1-methyl-6-oxo-1,4,5,6-tetrahydropyridazine-3-carboxamide], which IC50 (human SCD1; [2]) is on record?
Its IC50 is over 45000 nM.

For `CN1N=C(C(=O)Nc2ccc(Cc3cccc(F)c3)nn2)CCC1=O` [Compound 193, N-(6-(3-fluorobenzyl)pyridazin-3-yl)-1-methyl-6-oxo-1,4,5,6-tetrahydropyridazine-3-carboxamide], which IC50 (human SCD1; [2]) is on record?
Its IC50 is over 45000 nM.

`Cn1nc(C(=O)Nc2cnn(Cc3cccc(Cl)c3)c2)ccc1=O` [Compound 215, N-(1-(3-chlorobenzyl)-1H-pyrazol-4-yl)-1-methyl-6-oxo-1,6-dihydropyridazine-3-carboxamide] was tested. Which IC50 (human SCD1; [2]) did it give?
The IC50 was 1280 nM.

For `CN1N=C(C(=O)Nc2ccc(Cc3ccccc3)nn2)CCC1=O` [Compound 253], which IC50 (human SCD5; [1]) is on record?
Its IC50 is 4750 nM.

How did the IC50 (human SCD5; [1]) turn out when `CN1N=C(c2nc3cc(Cc4cccc(Cl)c4)cnc3[nH]2)CCC1=O` [Compound 255] was run?
Its IC50 is 4740 nM.

With `Cn1cc(C(=O)Nc2ccc(COc3cccc(Cl)c3)cn2)ccc1=O` [Compound 263] as the compound, how does the IC50 (human SCD1; [2]) read?
Its IC50 is over 45000 nM.

With `CN1N=C(C(=O)Nc2ccc(/C=C/c3cccc(Cl)c3)nn2)CCC1=O` [Compound 418] as the compound, how does the IC50 (human SCD5; [1]) read?
Its IC50 is over 45000 nM.

`CN1N=C(C(=O)Nc2ccc(Cc3ccc(F)cc3)cn2)CCC1=O` [Example 17, N-(5-(4-fluorobenzyl)pyridin-2-yl)-1-methyl-6-oxo-1,4,5,6-tetrahydropyridazine-3-carboxamide] was tested. Which IC50 (human SCD1; [2]) did it give?
Its IC50 is over 45000 nM.

With `CN1N=C(C(=O)Nc2ccc(Cc3ccc4c(c3)COC4)cn2)CCC1=O` [Example 19, N-(5-((1,3-dihydroisobenzofuran-5-yl)methyl)pyridin-2-yl)-1-methyl-6-oxo-1,4,5,6-tetrahydropyridazine-3-carboxamide] as the compound, how does the IC50 (human SCD1; [2]) read?
The IC50 was over 45000 nM.

Which IC50 (human SCD1; [2]) does the source give for `CN1N=C(C(=O)Nc2ccc(Cc3cc(F)cc(F)c3)cn2)CCC1=O` [Example 22, N-(5-(3,5-difluorobenzyl)pyridin-2-yl)-1-methyl-6-oxo-1,4,5,6-tetrahydropyridazine-3-carboxamide] here?
The IC50 was over 45000 nM.

For `CN1N=C(C(=O)Nc2ccc(Cc3cc(F)cc(C#N)c3)cn2)CCC1=O` [Example 26, N-(5-(3-cyano-5-fluorobenzyl)pyridin-2-yl)-1-methyl-6-oxo-1,4,5,6-tetrahydropyridazine-3-carboxamide], which IC50 (human SCD1; [2]) is on record?
Its IC50 is over 45000 nM.
